Consider 51 compounds from PubChem BioAssay AID1419 (Emory University Molecular Libraries Screening Center, 2008).

This assay can be described thus: EBV protein-peptide binding inhibitors, dose response, biochemical, fluorescence polarization (AID 1419). Particulars: cell-free protein-peptide binding, 2 h; for fold change: measured here: P channel fold over control, at 54 µM.

Molecules are shown by their SMILES. Active and inactive are the calls of the source. How the calls were made is not given here. Some results are limits rather than exact numbers.

What is called IC50 is the point on the concentration scale where inhibition reaches its midpoint. Consider `Cc1ccc2oc(=O)c(/C=C(\O)c3ccccc3)nc2c1`, for which the IC50 was 35.4 µM (inactive) and the fold change was 2.39.

`CC(=O)OCCCNc1cc(Sc2nc3ccccc3s2)c2nonc2c1[N+](=O)[O-]`: the IC50 is 9.79 µM and the fold change worked out at 4.44.

For the compound `O=C(COC(=O)c1cccnc1)NC1CCCc2ccccc21` (configuration not stated), the IC50 was > 54 µM (inactive) and the fold change turned out to be 1.84.

Take `O=c1oc2ccccc2cc1-c1nc(-c2cccs2)cs1`: the IC50 was 2.96 µM and the fold change is 25.8.

Take `O=[N+]([O-])c1ccc(O)c(N=Cc2sc3ccccc3c2O)c1`: the IC50 is > 54 µM (inactive) and the fold change turned out to be 1.45.

Consider `Cc1cc(C)c2cc3c(ccn3C3OC[C@H](O)[C@H](O)[C@H]3O)cc2n1` (some centres not stated), for which the concentration for half-maximal inhibition (IC50) was 3.78 µM and the fold change amounted to 2.96.

Take `O=C1c2cccc3cc([N+](=O)[O-])cc(c23)C(=O)N1/N=C/c1ccc(O)cc1O`: the half-inhibitory concentration (IC50) was 10 µM and the fold change is 0.933.

Take `O=C(NCc1ccco1)c1c2c(nc3ccccc13)CCC2`: the IC50 is > 54 µM (inactive) and the fold change was found to be 1.05.

Regarding `N=C1CCC(=N)c2c1c(O)c1ccccc1c2O`, the IC50 was less than 0.42 µM and the fold change is 41.5.

For the compound `Cn1cc(/C=C2\SC(=S)N(NC(=O)c3ccccc3)C2=O)c2ccccc21`, the IC50 was > 54 µM (inactive) and the fold change came out at 5.3.

On to `NS(=O)(=O)c1ccc(NC(=O)c2ccc(-c3ccccc3)cc2)cc1`, for which the IC50 is 25.1 µM and the fold change amounted to 1.08.

On to `N#Cc1cc(C(=O)c2ccccc2O)cn(-c2nccs2)c1=O`, for which the IC50 was 5.3 µM and the fold change turned out to be 14.2.

As to `N#C/C(=C/c1ccc(-c2ccc(S(N)(=O)=O)cc2)o1)c1nc2ccccc2s1`, the IC50 is > 54 µM (inactive) and the fold change was 30.3.

On to `CC1(C)CC(=O)C2=C(C1)OC(N)=C(C#N)[C@@H]2c1ccccc1[N+](=O)[O-]`, for which the IC50 is 2.27 µM and the fold change came out at 4.78.

Take `COc1ccc(N=Cc2c(O)n(Cc3ccccc3)c(=S)[nH]c2=O)c(OC)c1`: the IC50 was > 54 µM (inactive) and the fold change amounted to 3.88.

Turning to `Cc1ccc(N=Nc2c(O)n(CN3CCOCC3)c3ccccc23)cc1`, the 50% inhibitory concentration (IC50) is 2.43 µM and the fold change is 10.9.

As for `O=[N+]([O-])c1ccccc1/C=C/C=N/n1c(-c2ccc(Cl)cc2)n[nH]c1=S`, the IC50 is > 54 µM (inactive) and the fold change was 0.947.

As to `Cc1c2ccccc2nc2c(F)c(NC(C)C)c(F)c(F)c12`, the IC50 is less than 0.42 µM and the fold change was 4.96.

As to `COC(OC)c1ccnc(-c2ccc(OC(=O)c3cccs3)cc2)n1`, the IC50 is > 54 µM (inactive) and the fold change is 0.937.

On to `O=C(N/N=C/c1cc(Cl)cc([N+](=O)[O-])c1O)NC12CC3CC(CC(C3)C1)C2`, for which the IC50 is > 54 µM (inactive) and the fold change worked out at 0.913.

`COc1ccc(Cn2c3ccc(OC)cc3c3nc4ccccc4nc32)cc1`: the IC50 is 3.27 µM and the fold change is 3.38.

For `CCOC(=O)C1C(=O)C=C(/C=C/c2ccc(N(C)C)cc2)CC1c1ccccc1` (configuration not stated), the IC50 was > 54 µM (inactive) and the fold change came out at 7.93.

As for `Cc1cc(C(F)(F)F)n2nc(-c3sccc3-n3cccc3)cc2n1`, the IC50 is > 54 µM (inactive) and the fold change is 0.957.

Consider `O=C(COc1ccc(/C=N/NC(=O)c2ccc(O)cc2)cc1)Nc1ccc([N+](=O)[O-])cc1`, for which the IC50 was 2.97 µM and the fold change stood at 0.957.

For `Cc1ccc(C)n1-c1cc(S(=O)(=O)N2CCOCC2)ccc1N1CCCC1`, the IC50 was > 54 µM (inactive) and the fold change was determined as 1.02.

As to `Cc1ccc(-c2cn3nc(-c4ccccc4)c(-c4ccccc4)nc3n2)cc1`, the IC50 is 1.31 µM and the fold change was found to be 37.6.

Take `COc1ccc2c(C=Nc3c(C)n(C)n(-c4ccccc4)c3=O)c(O)n(Cc3ccco3)c(=O)c2c1`: the concentration for half-maximal inhibition (IC50) was 4.28 µM and the fold change came out at 3.39.

`Cc1nc(NC(=O)c2ccccc2)sc1-c1csc(Nc2ccc(C(=O)O)cc2)n1`: the IC50 was 2.31 µM and the fold change turned out to be 0.97.

In the case of `CCN(CC)c1ccc2oc(=O)c(C)nc2c1`, the 50% inhibitory concentration (IC50) was 4.76 µM and the fold change turned out to be 9.58.

As for `COC(=O)c1cc(N2CCN(C)CC2)nc2ccccc12`, the IC50 was 32.8 µM (inactive) and the fold change turned out to be 1.52.

`COCCCn1c(=NC(=O)c2ccccc2)c(C#N)cc2c(=O)n3cccc(C)c3nc21`: the IC50 is 3.88 µM and the fold change came out at 4.43.

Consider `COC(=O)c1ccccc1NC(=O)Nc1ncccc1C`, for which the IC50 is > 54 µM (inactive) and the fold change was found to be 0.937.

For `COc1ccccc1N1C(=O)C2C(C(=O)c3ccccc3)=NN(c3ccccc3)C2C1=O` (configuration not stated), the IC50 is 8.66 µM and the fold change came out at 8.64.

On to `C=CCOc1cccc(C2C(C(=O)c3ccc(C)o3)=C(O)C(=O)N2c2nccs2)c1` (configuration not stated), for which the half-inhibitory concentration (IC50) was less than 0.42 µM and the fold change worked out at 4.84.

For the compound `N#Cc1c(SCC(N)=O)nc2c(c1-c1ccc(O)cc1)CCCC2`, the IC50 is > 54 µM (inactive) and the fold change worked out at 0.89.

As for `O=[N+]([O-])c1ccc(N2N=C(c3ccco3)CC2c2ccccc2)cc1` (configuration not stated), the half-inhibitory concentration (IC50) is 14.2 µM and the fold change was determined as 2.85.

As for `N#Cc1c2nc3ccccc3nc2n2cc(NC(=O)c3ccc(F)cc3)ccc12`, the 50% inhibitory concentration (IC50) was 4.15 µM and the fold change came out at 0.583.

Turning to `O=C(COc1ccccc1Cl)c1ccc[nH]1`, the IC50 was > 54 µM (inactive) and the fold change is 1.08.

For `CC(C)OC(=O)c1c2c(n3ccccc13)C(=O)c1ccccc1C2=O`, the IC50 is 3.85 µM and the fold change is 2.93.

Regarding `Cc1cccc(C)c1NC(=O)COC(=O)c1c2c(nc3ccccc13)/C(=C\c1ccc3c(c1)OCO3)CCC2`, the IC50 was > 54 µM (inactive) and the fold change was determined as 1.32.

In the case of `Cc1ccccc1N1C(=O)c2cccc3c(N(C)CCO)ccc(c23)C1=O`, the IC50 is 0.74 µM and the fold change came out at 14.

With `CN(C)c1ccc(Nc2c3c4c(cccc4n(C)c2=O)C(=O)c2ccccc2-3)cc1`, the IC50 is > 54 µM (inactive) and the fold change came to 1.1.

As for `Cc1cccc2cc(/C=C3\N=C(c4ccccc4)OC3=O)c(N3CCOCC3)nc12`, the IC50 was 13.2 µM and the fold change turned out to be 12.5.

Take `Cc1cc[n+](-c2[nH]c(=O)sc2/C=N/N=C(\[O-])c2ccccc2)cc1C`: the IC50 is less than 0.42 µM and the fold change worked out at 16.5.

Turning to `CCNc1ccc2noc3c2c1C(=O)c1ccccc1-3`, the IC50 is less than 0.42 µM and the fold change came to 235.

Consider `CCOC(=O)c1c(/N=C/c2c(O)n(-c3ccc(F)cc3)c(=S)[nH]c2=O)sc2c1CCCC2`, for which the concentration for half-maximal inhibition (IC50) is 22.8 µM and the fold change was found to be 3.7.

As to `CCN(CC)c1ccc(/C=C/c2cc(-c3ccccc3)c3ccccc3n2)cc1`, the 50% inhibitory concentration (IC50) was 13.5 µM and the fold change was determined as 80.7.

As to `CCN(CC)C(=O)COC(=O)c1cc(-c2ccco2)nc2ccccc12`, the IC50 is 28.4 µM and the fold change was 1.44.

Turning to `CCCn1c(SCCc2ccccc2)nc2c1c(=O)[nH]c(=O)n2C`, the IC50 was > 54 µM (inactive) and the fold change came to 0.953.

For the compound `O=C(O)CSc1cc(C(=O)c2ccccc2O)cn2c(=O)c3c4c(sc3nc12)CCCC4`, the IC50 was > 54 µM (inactive) and the fold change stood at 1.02.

On to `CC1CCCCC1NC(=O)CN1C(=O)c2cccc(N)c2C1=O` (configuration not stated), for which the half-inhibitory concentration (IC50) is 2.35 µM and the fold change stood at 2.47.
